From patent publication US20070128217A1 (priority 2003, published 2007)

What was measured:
[1] = system: antibodies in sera from SARS patients (sera 1a, 1b, 2, 6, 37, 62, London, SARS-yellow, SARS-green); format: binding, human; design: Binding of serum 6 to linear peptides of protein X1 of SARS-CoV Urbani / Binding of serum 37 to linear peptides of protein X1 of SARS-CoV Urbani / Binding of serum 6 to looped/cyclic peptide (PEPSCAN-ELISA) / Binding of serum 37 to looped/cyclic peptide (PEPSCAN-ELISA) / Binding of serum 37 to looped/cyclic peptides of protein X1 of SARS-CoV Urbani / Binding of serum 6 to linear peptides of protein X2 / Binding of serum 37 to linear peptides of protein X2 / Binding of serum 37 to looped/cyclic peptides of protein X2 of SARS-CoV Urbani / Binding of serum 6 to linear peptides of protein M of SARS-CoV Urbani / Binding of serum 37 to linear peptides of protein M of SARS-CoV Urbani / Binding of serum 6 to looped/cyclic peptides of protein M of SARS-CoV Urbani / Binding of serum 37 to looped/cyclic peptides of protein M of SARS-CoV Urbani / Binding of serum 6 to linear peptides of protein X3 of SARS-CoV Urbani / Binding of serum 37 to linear peptides of protein X3 of SARS-CoV Urbani / Binding of serum 37 to looped/cyclic peptides of protein X3 of SARS-CoV Urbani / Binding of serum 6 to linear peptides of protein X4 of SARS-CoV Urbani / Binding of serum 37 to linear peptides of protein X4 of SARS-CoV Urbani / Binding of serum 37 to looped/cyclic peptides of protein X4 of SARS-CoV Urbani / Binding of serum 6 to linear peptides of protein X5 of SARS-CoV Urbani / Binding of serum 37 to linear peptides of protein X5 of SARS-CoV Urbani / Binding of serum 37 to looped/cyclic peptides of protein X5 of SARS-CoV Urbani / Binding of serum 6 to linear peptides of protein N of SARS-CoV Urbani / Binding of serum 37 to linear peptides of protein N of SARS-CoV Urbani / Binding of serum 6 to linear peptide (PEPSCAN-ELISA) / Binding of serum 1a to looped/cyclic peptides of protein N of SARS-CoV Urbani / Binding of serum 1b to looped/cyclic peptides of protein N of SARS-CoV Urbani / Binding of serum 2 to looped/cyclic peptides of protein N of SARS-CoV Urbani / Binding of serum 6 to looped/cyclic peptides of protein N of SARS-CoV Urbani / Binding of serum 37 to looped/cyclic peptides of protein N of SARS-CoV Urbani / Binding of serum 62 to looped/cyclic peptides of protein N of SARS-CoV Urbani / Binding of serum London to looped/cyclic peptides of protein N of SARS-CoV Urbani / Binding of serum SARS-green to looped/cyclic peptides of protein N of SARS-CoV Urbani: unit not given here
[2] = system: control sera (pooled serum of ten healthy LUMC hospital workers; commercial negative donor pooled serum from the Dutch bloodbank); format: binding, human; design: Binding of Control serum LUMC to linear peptides / Binding of Control serum Blood-bank to linear peptides / Binding of Control serum LUMC to looped peptides / Binding of Control Serum Blood-Bank to Looped peptides / Binding of Control serum LUMC to linear peptides of the protein M of SARS-CoV Urbani / Binding of Control serum Blood-bank to linear peptides of the protein M of SARS-CoV Urbani / Binding of Control serum LUMC to looped peptides of the protein M of SARS-CoV Urbani / Binding of Control Serum Blood-Bank to Looped peptides of the protein M of SARS-CoV Urbani: unit not given here
[3] = system: rabbit serum obtained by immunizing a rabbit with the SARS-CoV strain Frankfurt 1; format: binding; design: Binding of a rabbit serum to linear peptides / Binding of a rabbit serum to looped peptides / Rabbit serum linear peptides / Rabbit serum looped peptides / Binding of a rabbit serum to linear peptides of protein N of SARS-CoV Urbani (Rabbit serum linear peptides) / Binding of a rabbit serum to looped/cyclic peptides of protein N of SARS-CoV Urbani (Rabbit serum looped peptides): unit not given here

For ASLPFGWLVIGVAFL, the “Binding of serum 1a to linear peptides of protein X1 of SARS-CoV Urbani” value [1] was 0.7, the “Binding of serum 1a to looped/cyclic peptide (PEPSCAN-ELISA)” value [1] was 0.5 and the “Binding of serum 1b to linear peptides of protein X1 of SARS-CoV Urbani” value [1] was 0.5. For the same sequence, the “Binding of serum 1b to looped/cyclic peptide (PEPSCAN-ELISA)” value [1] was 0.3, the “Binding of serum 2 to linear peptides of protein X1 of SARS-CoV Urbani” value [1] was 0.6 and the “Binding of serum 2 to looped/cyclic peptide (PEPSCAN-ELISA)” value [1] was 0.4. The “Binding of serum 6 to linear peptides of protein X1 of SARS-CoV Urbani” value [1] was 0.5, the “Binding of serum 6 to looped/cyclic peptide (PEPSCAN-ELISA)” value [1] was 0.2 and the “Binding of serum 37 to linear peptides of protein X1 of SARS-CoV Urbani” value [1] was 0.6. The “Binding of serum 37 to looped/cyclic peptide (PEPSCAN-ELISA)” value [1] was 0.3, the “Binding of serum 62 to linear peptides of protein X1 of SARS-CoV Urbani” value [1] was 0.6 and the “Binding of serum 62 to looped/cyclic peptide (PEPSCAN-ELISA)” value [1] was 0.4. The “Binding of serum London to linear peptides of protein X1 of SARS-CoV Urbani” value [1] was 0.3, the “Binding of serum London to looped/cyclic peptide (PEPSCAN-ELISA)” value [1] was 0.2 and the “Binding of serum SARS-green to linear peptides of protein X1 of SARS-CoV Urbani” value [1] was 0.2. The “Binding of serum SARS-green to looped/cyclic peptide (PEPSCAN-ELISA)” value [1] was 0.2, the “Binding of serum SARS-yellow to linear peptides of protein X1 of SARS-CoV Urbani” value [1] was 0.4 and the “Binding of serum SARS-yellow to looped/cyclic peptide (PEPSCAN-ELISA)” value [1] was 0.3. The “Binding of Control Serum Blood-Bank to Looped peptides” value [2] was 0.4, the “Binding of Control serum Blood-bank to linear peptides” value [2] was 0.6 and the “Binding of Control serum LUMC to linear peptides” value [2] was 0.6. The “Binding of Control serum LUMC to looped peptides” value [2] was 0.6, the “Binding of a rabbit serum to linear peptides” value [3] was 1.4 and the “Binding of a rabbit serum to looped peptides” value [3] was 0.3.
In the case of CADGTRHTYQLRARS, the “Binding of serum 1a to linear peptides of protein X4 of SARS-CoV Urbani” value [1] is reported as 0.6, the “Binding of serum 1a to looped/cyclic peptides of protein X4 of SARS-CoV Urbani” value [1] is reported as 0.7 and the “Binding of serum 1b to linear peptides of protein X4 of SARS-CoV Urbani” value [1] is reported as 0.5. The “Binding of serum 1b to looped/cyclic peptides of protein X4 of SARS-CoV Urbani” value [1] was 0.4, the “Binding of serum 2 to linear peptides of protein X4 of SARS-CoV Urbani” value [1] was 0.5 and the “Binding of serum 2 to looped/cyclic peptides of protein X4 of SARS-CoV Urbani” value [1] was 0.8. For the same sequence, the “Binding of serum 6 to linear peptides of protein X4 of SARS-CoV Urbani” value [1] was 0.6, the “Binding of serum 6 to looped/cyclic peptides of protein X4 of SARS-CoV Urbani” value [1] was 0.6 and the “Binding of serum 37 to linear peptides of protein X4 of SARS-CoV Urbani” value [1] was 0.7. For the same sequence, the “Binding of serum 37 to looped/cyclic peptides of protein X4 of SARS-CoV Urbani” value [1] was 0.7, the “Binding of serum 62 to linear peptides of protein X4 of SARS-CoV Urbani” value [1] was 0.7 and the “Binding of serum 62 to looped/cyclic peptides of protein X4 of SARS-CoV Urbani” value [1] was 0.6. For the same sequence, the “Binding of serum London to linear peptides of protein X4 of SARS-CoV Urbani” value [1] was 0.8, the “Binding of serum London to looped/cyclic peptides of protein X4 of SARS-CoV Urbani” value [1] was 0.3 and the “Binding of serum SARS-green to linear peptides of protein X4 of SARS-CoV Urbani” value [1] was 0.6. The “Binding of serum SARS-green to looped/cyclic peptides of protein X4 of SARS-CoV Urbani” value [1] was 0.0, the “Binding of serum SARS-yellow to linear peptides of protein X4 of SARS-CoV Urbani” value [1] was 0.7 and the “Binding of serum SARS-yellow to looped/cyclic peptides of protein X4 of SARS-CoV Urbani” value [1] was 0.6. The “Binding of Control Serum Blood-Bank to Looped peptides” value [2] was 0.5, the “Binding of Control serum Blood-bank to linear peptides” value [2] was 0.7 and the “Binding of Control serum LUMC to linear peptides” value [2] was 0.5. For the same sequence, the “Binding of Control serum LUMC to looped peptides” value [2] was 0.6 and the “Recognition of the peptide by the rabbit serum” value [3] was “recognized”.
In the case of CDIKDLPKEITVATS, the “Binding of serum 1a to linear peptides of protein M of SARS-CoV Urbani” value [1] is reported as 0.6, the “Binding of serum 1a to looped/cyclic peptides of protein M of SARS-CoV Urbani” value [1] is reported as 0.6 and the “Binding of serum 1b to linear peptides of protein M of SARS-CoV Urbani” value [1] is reported as 0.3. For the same sequence, the “Binding of serum 1b to looped/cyclic peptides of protein M of SARS-CoV Urbani” value [1] was 0.3, the “Binding of serum 2 to linear peptides of protein M of SARS-CoV Urbani” value [1] was 0.3 and the “Binding of serum 2 to looped/cyclic peptides of protein M of SARS-CoV Urbani” value [1] was 0.6. The “Binding of serum 6 to linear peptides of protein M of SARS-CoV Urbani” value [1] was 0.3, the “Binding of serum 6 to looped/cyclic peptides of protein M of SARS-CoV Urbani” value [1] was 0.5 and the “Binding of serum 37 to linear peptides of protein M of SARS-CoV Urbani” value [1] was 0.5. The “Binding of serum 37 to looped/cyclic peptides of protein M of SARS-CoV Urbani” value [1] was 0.6, the “Binding of serum 62 to linear peptides of protein M of SARS-CoV Urbani” value [1] was 0.7 and the “Binding of serum 62 to looped/cyclic peptides of protein M of SARS-CoV Urbani” value [1] was 0.6. The “Binding of serum London to linear peptides of protein M of SARS-CoV Urbani” value [1] was 0.3, the “Binding of serum London to looped/cyclic peptides of protein M of SARS-CoV Urbani” value [1] was 0.2 and the “Binding of serum SARS-green to linear peptides of protein M of SARS-CoV Urbani” value [1] was 0.2. The “Binding of serum SARS-green to looped/cyclic peptides of protein M of SARS-CoV Urbani” value [1] was 0.4, the “Binding of serum SARS-yellow to linear peptides of protein M of SARS-CoV Urbani” value [1] was 0.0 and the “Binding of serum SARS-yellow to looped/cyclic peptides of protein M of SARS-CoV Urbani” value [1] was 0.6. For the same sequence, the “Binding of Control Serum Blood-Bank to Looped peptides of the protein M of SARS-CoV Urbani” value [2] was 0.6, the “Binding of Control serum Blood-bank to linear peptides of the protein M of SARS-CoV Urbani” value [2] was 0.4 and the “Binding of Control serum LUMC to linear peptides of the protein M of SARS-CoV Urbani” value [2] was 0.2. The “Binding of Control serum LUMC to looped peptides of the protein M of SARS-CoV Urbani” value [2] was 0.7, the “Rabbit serum linear peptides” value [3] was 0.4 and the “Rabbit serum looped peptides” value [3] was 0.6.
In the case of CFVLAAVYRINWVTG, the “Binding of serum 1a to linear peptides of protein M of SARS-CoV Urbani” value [1] is reported as 0.8, the “Binding of serum 1a to looped/cyclic peptides of protein M of SARS-CoV Urbani” value [1] is reported as 0.6 and the “Binding of serum 1b to linear peptides of protein M of SARS-CoV Urbani” value [1] is reported as 0.6. For the same sequence, the “Binding of serum 1b to looped/cyclic peptides of protein M of SARS-CoV Urbani” value [1] was 0.6, the “Binding of serum 2 to linear peptides of protein M of SARS-CoV Urbani” value [1] was 0.6 and the “Binding of serum 2 to looped/cyclic peptides of protein M of SARS-CoV Urbani” value [1] was 0.5. For the same sequence, the “Binding of serum 6 to linear peptides of protein M of SARS-CoV Urbani” value [1] was 0.6, the “Binding of serum 6 to looped/cyclic peptides of protein M of SARS-CoV Urbani” value [1] was 0.8 and the “Binding of serum 37 to linear peptides of protein M of SARS-CoV Urbani” value [1] was 0.4. For the same sequence, the “Binding of serum 37 to looped/cyclic peptides of protein M of SARS-CoV Urbani” value [1] was 0.6, the “Binding of serum 62 to linear peptides of protein M of SARS-CoV Urbani” value [1] was 0.4 and the “Binding of serum 62 to looped/cyclic peptides of protein M of SARS-CoV Urbani” value [1] was 0.7. The “Binding of serum London to linear peptides of protein M of SARS-CoV Urbani” value [1] was 0.4, the “Binding of serum London to looped/cyclic peptides of protein M of SARS-CoV Urbani” value [1] was 0.2 and the “Binding of serum SARS-green to linear peptides of protein M of SARS-CoV Urbani” value [1] was 0.5. For the same sequence, the “Binding of serum SARS-green to looped/cyclic peptides of protein M of SARS-CoV Urbani” value [1] was 0.3, the “Binding of serum SARS-yellow to linear peptides of protein M of SARS-CoV Urbani” value [1] was 0.2 and the “Binding of serum SARS-yellow to looped/cyclic peptides of protein M of SARS-CoV Urbani” value [1] was 0.4. The “Binding of Control Serum Blood-Bank to Looped peptides of the protein M of SARS-CoV Urbani” value [2] was 0.6, the “Binding of Control serum Blood-bank to linear peptides of the protein M of SARS-CoV Urbani” value [2] was 0.7 and the “Binding of Control serum LUMC to linear peptides of the protein M of SARS-CoV Urbani” value [2] was 0.6. For the same sequence, the “Binding of Control serum LUMC to looped peptides of the protein M of SARS-CoV Urbani” value [2] was 0.8, the “Rabbit serum linear peptides” value [3] was 0.2 and the “Rabbit serum looped peptides” value [3] was 0.1.
